# Measurements: US9751887B2, “Imidazo[1,2-b]pyridazine derivatives as kinase inhibitors” (Daiichi Sankyo Company, Limited, priority 2012, dated 2017)
# Counter-ions that a name gives are not always drawn. Like-named read-outs stand apart in the source and are kept apart here.
# What was measured:
# ROS1 [1] = molecular target: T1, ROS1 (Homo sapiens, UniProt P08922); experiment: ROS1 kinase inhibitory activity evaluation (mobility shift, EZ Reader II); type: biochemical; conditions: ROS1 25 pg/μL, FL-Peptide 22 substrate, three separate measurements
# T1 construct: purchased Carna Biosciences 08-163
# Procedure: Next, a substrate reaction solution was prepared. […] Then, the reaction stop solution was added thereto at a concentration of 40 μL/well. Substrate phosphorylation intensity was measured using EZ Reader II (Caliper Life Sciences).
# [2] = system: HCC78 cells having ROS1 fusion gene; experiment: HCC78 cell growth assay (CellTiter-Glo); type: cell-based; conditions: Homo sapiens, 72 hours culture, 2% FBS medium, luminescence, four separate measurements, read-out: growth inhibitory effect on HCC78 cells having ROS1 fusion gene IC50
# Procedure: Each compound of the present invention was assayed for its cell growth inhibitory effect using HCC78 cells having ROS1 fusion gene.
# The suspension was dispensed at a concentration of 100 μL/well to a 96-well culture plate for cell culture (SUMITOMO BAKELITE, Cat No MS-0096S) (hereinafter, referred to as an assay plate). […] In this context, the final concentration of DMSO was set to 0.4%. Then, the cells were cultured for 72 hours in a CO2 incubator.
# CellTiter-Glo Luminescent Cell Viability Assay reagent (Promega, Cat No G7571) was dispensed at a concentration of 100 μL/well to the assay plate. The contents in each well were reacted at room temperature for 10 minutes while stirred using a plate mixer. […] The luminescence intensity of each well was measured using EnVision. The luminescence intensity of each well obtained in four separate measurements was defined as the number of cells. IC50 values were calculated by curve fitting using GraphPad Prism version 4.
# ROS1 [3] = molecular target: T1, ROS1; experiment: ROS1 autophosphorylation inhibitory activity evaluation (ADP-Glo); type: biochemical; conditions: 200 nM inactive ROS1, ATP 1 mM, 25° C. 1.5 hours, ADP generated, four separate measurements
# Procedure: Fifty mM HEPES (pH 7.5), 10 mM MgCl2, 0.01% Brij-58, and 2.5 mM DTT were mixed to prepare an enzymatic reaction solution. […] ATP (final concentration: 1 mM) was further added thereto at a concentration of 2.5 μL/well. The resulting plate was left standing at 25° C. for 1.5 hours to cause enzymatic reaction. After the completion of enzymatic reaction, ADP-Glo Reagent-1 (Promega, V9103) was added thereto at a concentration of 2.5 μL/well, and the plate was left standing at room temperature for 60 minutes. Then, ADP-Glo Reagent-2 (Promega) was added thereto at a concentration of 5 μL/well, and the plate was left standing at room temperature for 60 minutes. The amount of ADP generated by the autophosphorylation of ROS1 was measured using EnVision (PerkinElmer Japan). The amount of ADP generated in four separate measurements was defined as the autophosphorylation intensity of ROS1. IC50 values were calculated by curve fitting using GraphPad Prism version 4 (GraphPad software).
# T1 sequence (P08922 28-2347): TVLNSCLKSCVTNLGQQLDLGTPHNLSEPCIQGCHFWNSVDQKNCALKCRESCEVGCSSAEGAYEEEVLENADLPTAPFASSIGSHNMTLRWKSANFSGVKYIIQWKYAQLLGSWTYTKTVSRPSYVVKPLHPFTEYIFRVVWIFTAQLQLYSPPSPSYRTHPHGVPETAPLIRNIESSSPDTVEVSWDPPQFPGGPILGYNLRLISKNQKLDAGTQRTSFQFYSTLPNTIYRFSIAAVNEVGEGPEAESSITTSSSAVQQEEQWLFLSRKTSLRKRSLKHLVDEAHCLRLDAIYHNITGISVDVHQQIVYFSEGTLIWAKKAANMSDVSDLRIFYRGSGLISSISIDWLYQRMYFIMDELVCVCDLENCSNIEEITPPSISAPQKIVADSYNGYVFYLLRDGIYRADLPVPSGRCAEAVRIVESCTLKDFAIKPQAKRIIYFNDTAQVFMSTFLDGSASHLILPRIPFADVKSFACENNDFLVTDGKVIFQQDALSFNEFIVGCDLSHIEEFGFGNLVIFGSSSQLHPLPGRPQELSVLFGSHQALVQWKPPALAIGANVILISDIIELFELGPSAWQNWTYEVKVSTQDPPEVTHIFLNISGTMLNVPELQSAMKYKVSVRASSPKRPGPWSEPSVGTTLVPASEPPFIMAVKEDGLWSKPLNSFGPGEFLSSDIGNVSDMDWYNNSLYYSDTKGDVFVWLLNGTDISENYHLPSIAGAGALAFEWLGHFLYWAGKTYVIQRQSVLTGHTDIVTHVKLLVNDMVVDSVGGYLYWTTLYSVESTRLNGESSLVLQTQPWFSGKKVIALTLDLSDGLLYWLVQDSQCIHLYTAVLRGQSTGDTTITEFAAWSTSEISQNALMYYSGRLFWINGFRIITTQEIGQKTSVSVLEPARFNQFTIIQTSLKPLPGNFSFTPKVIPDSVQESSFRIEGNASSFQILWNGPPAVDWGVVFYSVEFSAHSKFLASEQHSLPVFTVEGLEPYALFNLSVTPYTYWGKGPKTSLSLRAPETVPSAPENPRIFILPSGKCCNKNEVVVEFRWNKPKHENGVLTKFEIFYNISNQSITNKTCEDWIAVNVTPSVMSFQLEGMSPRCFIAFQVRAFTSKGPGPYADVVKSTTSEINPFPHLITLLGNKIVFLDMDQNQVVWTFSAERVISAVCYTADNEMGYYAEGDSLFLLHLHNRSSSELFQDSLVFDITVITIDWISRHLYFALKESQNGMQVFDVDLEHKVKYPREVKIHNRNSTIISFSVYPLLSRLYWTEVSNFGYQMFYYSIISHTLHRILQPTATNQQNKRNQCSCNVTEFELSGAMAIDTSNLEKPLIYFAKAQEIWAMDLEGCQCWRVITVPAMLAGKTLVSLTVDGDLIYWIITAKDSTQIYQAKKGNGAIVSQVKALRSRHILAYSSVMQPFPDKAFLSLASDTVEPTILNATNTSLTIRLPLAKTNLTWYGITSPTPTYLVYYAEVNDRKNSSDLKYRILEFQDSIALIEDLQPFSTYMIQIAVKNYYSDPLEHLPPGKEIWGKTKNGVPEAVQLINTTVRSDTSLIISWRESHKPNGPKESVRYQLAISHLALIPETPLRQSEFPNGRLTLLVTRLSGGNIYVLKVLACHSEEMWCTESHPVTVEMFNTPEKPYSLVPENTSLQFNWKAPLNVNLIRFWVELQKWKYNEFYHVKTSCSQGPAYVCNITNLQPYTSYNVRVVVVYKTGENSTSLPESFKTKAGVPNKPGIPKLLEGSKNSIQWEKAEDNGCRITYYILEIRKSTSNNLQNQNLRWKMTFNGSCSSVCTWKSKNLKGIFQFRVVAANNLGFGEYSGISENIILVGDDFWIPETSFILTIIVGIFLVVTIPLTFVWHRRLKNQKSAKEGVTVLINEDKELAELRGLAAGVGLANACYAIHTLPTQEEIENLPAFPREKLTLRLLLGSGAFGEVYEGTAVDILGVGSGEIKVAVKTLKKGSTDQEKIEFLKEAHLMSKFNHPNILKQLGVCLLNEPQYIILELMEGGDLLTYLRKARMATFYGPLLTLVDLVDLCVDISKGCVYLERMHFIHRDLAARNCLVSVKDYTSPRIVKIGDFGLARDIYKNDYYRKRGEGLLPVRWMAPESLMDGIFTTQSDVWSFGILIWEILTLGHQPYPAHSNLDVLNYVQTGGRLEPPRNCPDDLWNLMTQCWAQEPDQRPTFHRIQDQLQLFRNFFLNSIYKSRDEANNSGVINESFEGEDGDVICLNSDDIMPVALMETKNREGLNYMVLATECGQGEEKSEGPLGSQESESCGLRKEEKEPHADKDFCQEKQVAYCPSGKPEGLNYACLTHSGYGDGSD
SMILES,IC50 (ROS1 [1]) [µM],"IC50 ([2]; HCC78, 72 h) [µM]",IC50 (ROS1 [3]) [µM],IC50 ([2]; HCC78) [µM]
"CNCCOc1cccc(-c2cnc3ccc(N[C@H](C)c4cccc(F)c4)nn23)c1 [Example 58, N-[(1R)-1-(3-Fluorophenyl)ethyl]-3-[3-[2-(methylamino)ethoxy]phenyl]imidazo[1,2-b]pyridazin-6-amine]",0.001 to 0.01,0.02 to 0.1,< 0.02,
"C[C@@H](Oc1ccc2ncc(-c3ccc(N4C[C@H](N)CC4=O)cc3)n2n1)c1cccc(F)c1 [Example 78, (4R)-4-Amino-1-[4-[6-[(1R)-1-(3-fluorophenyl)ethoxy]imidazo[1,2-b]pyridazin-3-yl]phenyl]pyrrolidin-2-one]",0.001 to 0.01,0.02 to 0.1,< 0.02,
"CN(Cc1cc(F)ccc1Cl)c1ccc2ncc(-c3ccc(N4C[C@@H](N)CC4=O)cc3)n2n1 [Example 99, (4S)-4-Amino-1-[4-[6-[(2-chloro-5-fluorophenyl)methyl-methylamino]imidazo[1,2-b]pyridazin-3-yl]phenyl]pyrrolidin-2-one]",0.001 to 0.01,0.02 to 0.1,0.02 to 0.1,
"C[C@@H](Nc1ccc2ncc(-c3cccc(OCCN)c3)n2n1)c1cccc(F)c1 [Example 67, 3-[3-(2-Aminoethoxy)phenyl]-N-[(1R)-1-(3-fluorophenyl)ethyl]imidazo[1,2-b]pyridazin-6-amine]",0.001 to 0.01,0.02 to 0.1,< 0.02,
"c1ccc(CNc2ccc3ncc(-c4ccc(OCC[C@@H]5CCCN5)cc4)n3n2)cc1 [Example 6, N-Benzyl-3-[4-[2-[(2S)-pyrrolidin-2-yl]ethoxy]phenyl]imidazo[1,2-b]pyridazin-6-amine]",0.001 to 0.01,0.02 to 0.1,0.02 to 0.1,
"CN(Cc1cccc(F)c1F)c1ccc2ncc(-c3ccc(N4C[C@@H](N)CC4=O)cc3)n2n1 [Example 98, (4S)-4-Amino-1-[4-[6-[(2,3-difluorophenyl)methyl-methylamino]imidazo[1,2-b]pyridazin-3-yl]phenyl]pyrrolidin-2-one]",0.001 to 0.01,0.02 to 0.1,< 0.02,
"OCCN1CCC[C@H]1COc1cccc(-c2cnc3ccc(NCc4ccccc4)nn23)c1 [Example 7, 2-[(2S)-2-[[3-[6-(Benzylamino)imidazo[1,2-b]pyridazin-3-yl]phenoxy]methyl]pyrrolidin-1-yl]ethanol]",0.001 to 0.01,0.02 to 0.1,0.1 to 0.15,
"C[C@@H](Nc1ccc2ncc(-c3cccc(OC[C@@H]4CCN4)c3)n2n1)c1cccc(F)c1 [Example 57, 3-[3-[[(2S)-Azetidin-2-yl]methoxy]phenyl]-N-[(1R)-1-(3-fluorophenyl)ethyl]imidazo[1,2-b]pyridazin-6-amine]",0.001 to 0.01,0.02 to 0.1,0.02 to 0.1,
CC(Oc1ccc2ncc(-c3ccc(N4C[C@@H](N)CC4=O)cc3)n2n1)c1cc(F)cnc1F (stereo partly drawn) [Example 106],< 0.001,< 0.02,< 0.02,
"CN(Cc1cccc(F)c1F)c1ccc2ncc(-c3ccc(N4C[C@@H](N)CC4=O)nc3)n2n1 [Example 132, (4S)-4-Amino-1-[5-[6-[(2,3-difluorophenyl)methyl-methylamino]imidazo[1,2-b]pyridazin-3-yl]-2-pyridyl]pyrrolidin-2-one]",0.001 to 0.01,0.02 to 0.1,0.02 to 0.1,
"CC(Oc1ccc2ncc(-c3ccc(N4C[C@@H](N)CC4=O)cc3)n2n1)c1nccs1 (stereo partly drawn) [Example 105, (4S)-4-Amino-1-[4-[6-(1-thiazol-2-ylethoxy)imidazo[1,2-b]pyridazin-3-yl]phenyl]pyrrolidin-2-one]",0.01 to 0.06,0.1 to 0.6,0.02 to 0.1,
"CN(Cc1cccnc1)c1ccc2ncc(-c3ccc(N4C[C@@H](N)CC4=O)cc3)n2n1 [Example 117, (4S)-4-Amino-1-[4-[6-[methyl(3-pyridylmethyl)amino]imidazo[1,2-b]pyridazin-3-yl]phenyl]pyrrolidin-2-one]",0.001 to 0.01,,0.02 to 0.1,0.02 to 0.1
"CN(Cc1cccc(C#N)c1)c1ccc2ncc(-c3ccc(N4C[C@@H](N)CC4=O)cc3)n2n1 [Example 121, 3-[[[3-[4-[(4S)-4-Amino-2-oxopyrrolidin-1-yl]phenyl]imidazo[1,2-b]pyridazin-6-yl]-methylamino]methyl]benzonitrile]",0.001 to 0.01,0.02 to 0.1,0.02 to 0.1,
"CN(Cc1cccc(F)c1)c1ccc2ncc(-c3ccc(OC[C@@H]4CCCN4)cc3)n2n1 [Example 10, N-[(3-Fluorophenyl)methyl]-N-methyl-3-[4-[[(2S)-pyrrolidin-2-yl]methoxy]phenyl]imidazo[1,2-b]pyridazin-6-amine]",0.001 to 0.01,0.1 to 0.6,0.02 to 0.1,
"C[C@@H](Nc1ccc2ncc(-c3cccc(OCCCN)c3)n2n1)c1cccc(F)c1 [Example 68, 3-[3-(3-Aminopropoxy)phenyl]-N-[(1R)-1-(3-fluorophenyl)ethyl]imidazo[1,2-b]pyridazin-6-amine]",0.001 to 0.01,0.02 to 0.1,< 0.02,
"CC[C@@H](N)COc1ccc(-c2cnc3ccc(N[C@H](C)c4cccc(F)c4)nn23)cc1 [Example 52, 3-[4-[(2R)-2-Aminobutoxy]phenyl]-N-[(1R)-1-(3-fluorophenyl)ethyl]imidazo[1,2-b]pyridazin-6-amine]",< 0.001,0.02 to 0.1,< 0.02,

# Second part, led by results:
IC50 (ROS1 [1]) [µM],"IC50 ([2]; HCC78, 72 h) [µM]",IC50 (ROS1 [3]) [µM],SMILES,IC50 ([2]; HCC78) [µM]
< 0.001,< 0.02,< 0.02,"C[C@@H](Nc1ccc2ncc(-c3ccc(N4C[C@@H](N)CC4=O)c(F)c3)n2n1)c1cccc(F)c1 [Example 92, (4S)-4-Amino-1-[2-fluoro-4-[6-[[(1R)-1-(3-fluorophenyl)ethyl]amino]imidazo[1,2-b]pyridazin-3-yl]phenyl]pyrrolidin-2-one]",
< 0.001,0.02 to 0.1,0.02 to 0.1,"CC1(N)CN(c2ccc(-c3cnc4ccc(OCc5cccc(F)c5)nn34)cc2)C(=O)C12CC2 (stereo not drawn) [Example 77, 7-Amino-5-[4-[6-[(3-fluorophenyl)methoxy]imidazo[1,2-b]pyridazin-3-yl]phenyl]-7-methyl-5-azaspiro[2.4]heptan-4-one]",
< 0.001,< 0.02,< 0.02,"C[C@@H](Nc1ccc2ncc(-c3ccc(OC[C@@H]4CCCN4)c(C#N)c3)n2n1)c1cccc(F)c1 [Example 48, 5-[6-[[(1R)-1-(3-Fluorophenyl)ethyl]amino]imidazo[1,2-b]pyridazin-3-yl]-2-[[(2S)-pyrrolidin-2-yl]methoxy]benzonitrile]",
< 0.001,0.02 to 0.1,0.02 to 0.1,"C[C@@H](Oc1ccc2ncc(-c3ccc(OC[C@@H]4CCN4)cc3)n2n1)c1cccc(F)c1 [Example 18, 3-[4-[[(2S)-Azetidin-2-yl]methoxy]phenyl]-6-[(1R)-1-(3-fluorophenyl)ethoxy]imidazo[1,2-b]pyridazine hydrochloride]",
< 0.001,0.02 to 0.1,< 0.02,"C[C@@H](Nc1ccc2ncc(-c3ccc(OC[C@@H]4CC(F)CN4)cc3)n2n1)c1cccc(F)c1 (stereo in doubt) [Example 33, N-[(1R)-1-(3-Fluorophenyl)ethyl]-3-[4-[[(2S,4S)-4-fluoropyrrolidin-2-yl]methoxy]phenyl]imidazo[1,2-b]pyridazin-6-amine]",
< 0.001,0.02 to 0.1,< 0.02,"CN[C@H]1CC(=O)N(c2ccc(-c3cnc4ccc(O[C@H](C)c5cccc(F)c5)nn34)cc2)C1 [Example 80, (4S)-1-[4-[6-[(1R)-1-(3-Fluorophenyl)ethoxy]imidazo[1,2-b]pyridazin-3-yl]phenyl]-4-(methylamino)pyrrolidin-2-one]",
< 0.001,0.02 to 0.1,< 0.02,"C[C@@H](Nc1ccc2ncc(-c3ccc(OCCCN)cc3)n2n1)c1cccc(F)c1 [Example 28, 3-[4-(3-Aminopropoxy)phenyl]-N-[(1R)-1-(3-fluorophenyl)ethyl]imidazo[1,2-b]pyridazin-6-amine]",
< 0.001,< 0.02,< 0.02,"C[C@@H](Nc1ccc2ncc(-c3ccc(N4C[C@@H](N)CC4=O)cc3)n2n1)c1ccccc1 [Example 88, (4S)-4-Amino-1-[4-[6-[[(1R)-1-phenylethyl]amino]imidazo[1,2-b]pyridazin-3-yl]phenyl]pyrrolidin-2-one]",
